Data published in PMC6696115, “Characterization of Antimicrobial, Antioxidant, and Leishmanicidal Activities of Schiff Base Derivatives of 4-Aminoantipyrine” (Molecules, 2019).
Converted amounts (≈) assume the structure as drawn. Where two headings read alike, the source gives them in different places.

How the values were obtained:
[1] = carcinogenicity group; ref IARC; cited from earlier work
[2] = system: Aspergillus niger ATCC 6275; experiment: antimicrobial serial microdilution, A. niger; assay type: cell-based; settings: serial microdilution, 35 °C, 48 h; for MIC: 96-well plates, max 2% DMSO
Description: (§1) The in vitro antifungal and antimicrobial activities were determined by testing the Schiff bases against the fungi Saccharomyces cerevisiae, Candida albicans, and Aspergillus niger and the bacteria Staphylococcus aureus, Enterococcus faecalis (Gram-positive), Pseudomonas aeruginosa, and Escherichia coli (Gram-negative).
(§2) The bacterial inoculum was prepared by emulsifying overnight colonies from an agar medium in broth (Mueller–Hinton broth). The suspensions were adjusted to a final organism density of 5 × 10^5 colony former units (cfu)/mL. […] The emulsifying of A. niger cultures was done by pouring 5 mL of saline and 0.1% of polysorbate 80 over the Petri dishes. Then, 100 µL of this suspension were diluted in 5 mL of saline and adjusted to an optical density of 0.1 at 530 nm. For S. cerevisiae, fresh exponential YPAD (yeast extract 1%, peptone 2%, adenine 0.004%, […]) cultures were adjusted to an optical density of 0.5 at 600 nm, and then diluted to the equivalent of 1 × 10^4 cells/mL (10^−3 dilution). Stock solutions of Schiff bases were prepared by dissolving them in DMSO at 10 mg/mL. […] The range of concentrations used was empirically selected for each organisms and the Schiff base. Drug sensitivities were assayed by serial dilutions in 96-well plates as previously described. A row with media and cells but without drug was the positive control. The blank was done by preparing a row with media and drugs, but without cells. Plates were fitted with a tight lid before incubation to prevent desiccation. […] The minimum bactericidal concentration (MBC) and fungicidal concentration (MFC) were determined by spreading 100 µL of culture from each well onto a plate (Mueller–Hinton agar for bacteria, Sabouraud dextrose agar for fungi except S. cerevisiae, and YPAD for S. cerevisiae).

[3] = system: Candida albicans ATCC 10231; experiment: antimicrobial serial microdilution, C. albicans; assay type: cell-based; settings: serial microdilution, 35 °C, 48 h
Description: as §1, §2

[4] = system: S. cerevisiae (backgrounds W303 and BY4741); experiment: antimicrobial serial microdilution, S. cerevisiae; assay type: cell-based, Saccharomyces cerevisiae; settings: 48 h; for MIC / IC50: Saccharomyces cerevisiae; for MIC: read-out: MIC S. cerevisiae; for NIC S. cerevisiae: noninhibitory concentration
Description: as §1, §2

[5] = system: Enterococcus faecalis ATCC 29212; experiment: antimicrobial serial microdilution, E. faecalis; assay type: cell-based; settings: serial microdilution, 37 °C, 24 h
Description: as §1, §2

[6] = system: Staphylococcus aureus ATCC 29213; experiment: antimicrobial serial microdilution, S. aureus; assay type: cell-based; settings: serial microdilution, 37 °C, 24 h
Description: as §1, §2

[7] = system: Escherichia coli ATCC 25922; experiment: antimicrobial serial microdilution, E. coli; assay type: cell-based; settings: serial microdilution, 37 °C, 24 h
Description: as §1, §2

P. aeruginosa ATCC 27853 = experiment: antimicrobial serial microdilution, P. aeruginosa; assay type: cell-based; settings: Pseudomonas aeruginosa, ATCC27853, 37 °C, 24 h
Description: as §1, §2

[8] = system: promastigotes from L. mexicana (M379); experiment: leishmanicidal activity, MTT colorimetric assay; assay type: cell-based; settings: Leishmania mexicana, 48 h exposure, 1% DMSO
Description: Leishmanicidal activities of all Schiff bases were evaluated by measuring promastigote mitochondrial activity using MTT colorimetric assay as described previously. […] The medium was renewed every four days. Parasite density was determined in a Neubauer chamber.
Into each well of a 96-well cell culture dish was dispensed 1 × 10^6 parasites. A stock solution of each of the Schiff Base was prepared in DMSO, and serial dilutions were added to the parasite suspension, keeping the solvent concentration at 1%. The final volume was 100 µL for each well and triplicate conditions were carried out. Pentamidine treatment (100 µg/mL) and untreated parasites were used as positive control and negative control, respectively. After exposure to the compounds for 48 h in culture medium, 10 µL of a solution of 5 mg/mL MTT dissolved in PBS was added to each well. […] Later, the plate was centrifuged at 4400 rpm for 10 min and the culture medium was then aspirated. Next, 100 µL of DMSO were added into each well to solubilize the formazan and the plate was shaken for 5 min. The colored formazan salt was measured by recording changes in absorbance at 570 nm using a microplate reader, a BioTek Synergy HT spectrophotometer. A reference wavelength of 630 nm was used to subtract background. Optical densities were analyzed as the quantity of formazan is directly proportional to the number of viable parasites. Data were analyzed with the statistical software GraphPad Prism.

[9] = DPPH radical scavenging assay; assay type: biochemical; settings: 30 min, room temperature, dark, absorbance 515 nm
Description: This was used immediately. The experimental procedure was adapted from the literature. Briefly, in a 96-well plate, 100 µL of solution of DPPH (2, 2-diphenyl-1-picrylhydrazyl) radical (0.2 mM in methanol) was added to 100 µL of methanolic solutions of 3a–j, 4, or 5, prepared as serial two-fold dilutions from the stock solution. Standards were also prepared in the same concentrations.
The percentage of DPPH scavenging was then calculated by using the following formula: % DPPH scavenging=100∗Asample+DPPH−Asample blank/ADPPH−Asolvent

RAW 264.7 cells = experiment: cell viability, MTT dye assay; assay type: cell-based, murine; settings: 48 h
Description: The specificity and selectivity for the pathogen target is a key point for any potential drug.
The medium was renewed once a week. The viability was determined using MTT (thiazolyl blue tetrazolium bromide) dye assay as described previously for leishmanicidal activity assessment, with some variations. Here, 5 × 10^4 cells/well in a final volume of 100 µL were deposited into a 96-well plate in triplicate. Saponin (2 and 4 mg/mL) and untreated cells were used as the positive control and negative control, respectively. Schiff bases were dissolved in DMSO to obtain different serial concentrations (0.01–2000 µM). […] Cells were pelleted by centrifugation at 4400 rpm for 10 minutes and the media was removed. Next, 100 µL/well of DMSO were added and the absorbance at 570 nm was recorded. A reference wavelength of 630 nm was used for background subtraction.

[10] = Enterococcus faecalis, ATCC29212
[11] = Staphylococcus aureus, ATCC29213

Compound | IARC: group of classification of IARC [1] | MIC ([2]; Aspergillus niger, ATCC6275) [µg/mL] | MIC ([3]; Candida albicans, ATCC10231) [µg/mL] | MIC [5, 10] [µg/mL] | MIC [6, 11] [µg/mL] | MIC ([7]; Escherichia coli, ATCC25922) [µg/mL] | MIC (P. aeruginosa ATCC 27853) [µg/mL] | IC50 [8] [µM] | IC50 [9] [µM] | further results
O=c1[nH]cc(F)c(=O)[nH]1 [Fluorouracil] | 3 | – | – | – | – | – | – | – | – | –
COc1cc(C=Nc2c(C)n(C)n(-c3ccccc3)c2=O)cc(OC)c1O [Compound 3j, 4-(4-Hydroxy-3,5-dimethoxybenzylideneamino)-1,5-dimethyl-2-phenyl-1H-pyrazol-3(2H)-one] | – | > 200 | > 200 | > 200 | > 200 | > 200 | > 200 | > 200 | 15.7 ± 3.2 | MIC ([4]; serial microdilution, 35 °C): > 200 µg/mL; melting point: 259.2 to 260.7 °C
O=c1c(O)c(-c2ccc(O)c(O)c2)oc2cc(O)cc(O)c12 [quercetin, reference compound] | – | – | – | – | – | – | – | – | 7.3 ± 1 | –
CN(Cc1cnc2nc(N)nc(N)c2n1)c1ccc(C(=O)N[C@@H](CCC(=O)O)C(=O)O)cc1 [Methotrexate] | 3 | – | – | – | – | – | – | – | – | –
N=C(N)c1ccc(OCCCCCOc2ccc(C(=N)N)cc2)cc1 [PT, pentamidine, reference compound] | – | – | – | – | – | – | – | 4.5 ± 0.46 | – | –
COc1cc([C@@H]2c3cc4c(cc3[C@@H](O[C@@H]3O[C@@H]5CO[C@@H](C)O[C@H]5[C@H](O)[C@H]3O)[C@H]3COC(=O)[C@H]23)OCO4)cc(OC)c1O [Etoposide] | 1 | – | – | – | – | – | – | – | – | –
C[C@@H]1[C@H](O)[C@@H](C)/C=C/C=C/C=C/C=C/C=C/C=C/C=C/[C@H](O[C@@H]2O[C@H](C)[C@@H](O)[C@H](N)[C@@H]2O)C[C@@H]2O[C@](O)(C[C@@H](O)C[C@@H](O)[C@H](O)CC[C@@H](O)C[C@@H](O)CC(=O)O[C@H]1C)C[C@H](O)[C@H]2C(=O)O [AP, amphotericin, reference compound] | – | – | – | – | – | – | – | 0.18 ± 0.07 | – | –
O=C1O[C@H]([C@@H](O)CO)C(O)=C1O [ascorbic acid, reference compound] | – | – | – | – | – | – | – | – | 14.5 ± 2.2 | –
Cc1c(N)nc([C@H](CC(N)=O)NC[C@H](N)C(N)=O)nc1C(=O)N[C@H](C(=O)N[C@H](C)[C@@H](O)[C@H](C)C(=O)N[C@H](C(=O)NCCc1nc(-c2nc(C(=O)NCCC[S+](C)C)cs2)cs1)[C@@H](C)O)[C@@H](OC1OC(CO)C(O)C(O)C1OC1OC(CO)C(O)C(OC(N)=O)C1O)c1cnc[nH]1 (some centres unmarked) [Bleomycin] | 2B | – | – | – | – | – | – | – | – | –
O=P1(N(CCCl)CCCl)NCCCO1 (centres unmarked) [Cyclophosphamide] | 1 | – | – | – | – | – | – | – | – | –
Cc1c(/N=C/c2ccco2)c(=O)n(-c2ccccc2)n1C [Compound 4, 4-(2-furfurilideneamino)-1,5-dimethyl-2-phenyl-1H-pyrazol-3(2H)-one] | – | > 200 | > 200 | > 200 | > 200 | > 200 | > 200 | > 200 | > 200 | MIC ([4]; serial microdilution, 35 °C): > 200 µg/mL; % Live Cells (RAW 264.7 cells; RAW 264.7, exposure to 400 µM): 23.8 ± 3.4%
N.N.[Cl][Pt][Cl] [Cisplatin] | 2A | – | – | – | – | – | – | – | – | –
C[C@@H](c1ncncc1F)[C@](O)(Cn1cncn1)c1ccc(F)cc1F [VR, voriconazole, reference compound] | – | 1.2 ± 0.05 (≈ 3.44 µM) | 29.7 ± 3.52 (≈ 85 µM) | – | – | – | – | – | – | IC50 ([2]; Aspergillus niger, ATCC6275): 0.2 µg/mL (≈ 0.573 µM); NIC A. niger ([2]; noninhibitory concentration): 0.05 ± 0.01 µg/mL; IC50 ([3]; Candida albicans, ATCC10231): 0.9 µg/mL (≈ 2.58 µM); NIC C. albicans ([3]; noninhibitory concentration): 0.00 ± 0.00 µg/mL
COc1ccc(C=Nc2c(C)n(C)n(-c3ccccc3)c2=O)cc1 [Compound 3c, 4-(4-Methoxybenzylideneamino)-1,5-dimethyl-2-phenyl-1H-pyrazol-3(2H)-one] | – | > 200 | > 200 | > 200 | > 200 | > 200 | > 200 | > 200 | > 200 | MIC ([4]; serial microdilution, 35 °C): > 200 µg/mL; % Live Cells (RAW 264.7 cells; RAW 264.7, exposure to 400 µM): 26.1 ± 1.9%
Cc1c(N=Cc2ccc(O)c(O)c2)c(=O)n(-c2ccccc2)n1C [Compound 3i, 4-(3,4-Dihydroxybenzylideneamino)-1,5-dimethyl-2-phenyl-1H-pyrazol-3(2H)-one] | – | > 200 | > 200 | > 200 | > 200 | > 200 | > 200 | > 200 | 18.9 ± 2.4 | MIC ([4]; serial microdilution, 35 °C): > 200 µg/mL; % Live Cells (RAW 264.7 cells; RAW 264.7, exposure to 400 µM): 34.4 ± 2.4%
Cc1c(N=Cc2cccc([N+](=O)[O-])c2)c(=O)n(-c2ccccc2)n1C [Compound 3g, 4-(3-Nitrobenzylideneamino)-1,5-dimethyl-2-phenyl-1H-pyrazol-3(2H)-one] | – | > 200 | > 200 | > 200 | > 200 | > 200 | > 200 | > 200 | > 200 | IC50 ([4]; serial microdilution, 35 °C, read-out: IC50 S. cerevisiae (converted)): 105 µg/mL (≈ 312 µM); MIC ([4]; serial microdilution, 35 °C): 179 ± 59.5 µg/mL (≈ 533 µM); NIC S. cerevisiae ([4]; serial microdilution, 35 °C): 63.7 ± 8.7 µg/mL; % Live Cells (RAW 264.7 cells; RAW 264.7, exposure to 300 µM (limited solubility)): 22.1 ± 0.6%
O=C(O)c1cn(C2CC2)c2cc(N3CCNCC3)c(F)cc2c1=O [CP, ciprofloxacin, reference compound] | – | – | – | 1.15 ± 0.42 (≈ 3.47 µM) | 0.44 ± 0.09 (≈ 1.33 µM) | 0.15 ± 0.009 (≈ 0.453 µM) | 0.47 ± 0.1 (≈ 1.42 µM) | – | – | IC50 [5, 10]: 0.49 µg/mL (≈ 1.48 µM); NIC E. faecalis ([5]; noninhibitory concentration): 0.30 ± 0.07 µg/mL; IC50 [6, 11]: 0.1 µg/mL (≈ 0.302 µM); NIC S. aureus ([6]; noninhibitory concentration): 0.06 ± 0.02 µg/mL; IC50 ([7]; Escherichia coli, ATCC25922): 0.07 µg/mL (≈ 0.211 µM); NIC E. coli ([7]; noninhibitory concentration): 0.06 ± 0.003 µg/mL; IC50 (P. aeruginosa ATCC 27853): 0.94 µg/mL (≈ 2.84 µM)
O=C(O)/C=C/c1ccc(O)c(O)c1 [caffeic acid, reference compound] | – | – | – | – | – | – | – | – | 16.2 ± 2.4 | –
CN[C@@H]1[C@@H](O)[C@@H](O[C@@H]2[C@@H](O)[C@H](O[C@H]3O[C@H]([C@@H](C)O)[C@@H](O)[C@H](O)[C@H]3N)[C@@H](N)C[C@H]2N)OC[C@]1(C)O [GN, geneticin, reference compound] | – | – | – | – | – | – | – | – | – | IC50 ([4]; read-out: IC50 S. cerevisiae): 59.9 µg/mL (≈ 121 µM); MIC [4]: 93.7 ± 0.9 µg/mL (≈ 189 µM); NIC S. cerevisiae ([4]; serial microdilution, 35 °C): 44.5 ± 1.7 µg/mL
